Source: US20220095618A1, “HERBICIDAL COMPOSITIONS” (SYNGENTA CROP PROTECTION AG, priority 2019, published 2022)

How the values were obtained:
Experiment in all cases: Post-emergence efficacy of compounds of Formula (I) (B1), glasshouse
Format in all cases: in vivo
[1] = system: Amaranthus palmeri (AMAPA); conditions: Application Rate 500 g/Ha, evaluated after 13 days; for pest or weed control at 500 g/ha: Amaranthus palmeri, post-emergence, 312 h, read-out: Control of AMAPA after post-emergence application (100=total damage to plant; 0=no damage to plant)
Description: (§1) Seeds of a variety of test species were sown in standard Iaom-based soil in pots:— Ipomoea hederacea (IPOHE), Euphorbia heterophylla (EPHHL), Chenopodium album (CHEAL), Amaranthus palmeri (AMAPA), Lolium perenne (LOLPE), Digitaria sanguinalis (DIGSA), Eleusine indica (ELEIN), Echinochloa crus-galli (ECHCG), Setaria faberi (SETFA). After cultivation for 14 days (post-emergence) under controlled conditions in a glasshouse (at 24/16° C., day/night; 14 hours light; 65% humidity), the plants were sprayed with an aqueous spray solution derived from the dissolution of the technical active ingredient Formula (I) in a small amount of acetone and a special solvent and emulsifier mixture referred to as IF50 (11.12% Emulsogen EL360 TM+44.44% N-methylpyrrolidone+44.44% Dowanol DPM glycol ether), to create a 50 g/I solution which was then diluted to required concentration using 0.25% or 1% Empicol ESC70 (Sodium lauryl ether sulphate)+1% ammonium sulphate as diluent. The delivery of the aqueous spray solution was via a laboratory track sprayer which delivered the aqueous spray composition at a rate of 200 litres per hectare, using a flat fan nozzle (Teejet 11002VS) and an application volume of 200 litre/ha (at 2 bar).
(§2) The test plants were then grown in a glasshouse under controlled conditions (at 24/16° C., day/night; 14 hours light; 65% humidity) and watered twice daily. After 13 days the test was evaluated (100=total damage to plant; 0=no damage to plant).

[2] = system: Ipomoea hederacea (IPOHE); conditions: Application Rate 500 g/Ha, evaluated after 13 days; for pest or weed control at 500 g/ha: Ipomoea hederacea, post-emergence, 312 h, read-out: Control of IPOHE after post-emergence application (100=total damage to plant; 0=no damage to plant)
Description: as §1, §2

Setaria faberi (SETFA) = conditions: Application Rate 500 g/Ha, evaluated after 13 days; for pest or weed control at 500 g/ha: Setaria faberi, post-emergence, 312 h, read-out: Control of SETFA after post-emergence application (100=total damage to plant; 0=no damage to plant)
Description: as §1, §2

Eleusine indica (ELEIN) = conditions: Application Rate 500 g/Ha, evaluated after 13 days; for pest or weed control at 500 g/ha: Eleusine indica, post-emergence, 312 h, read-out: Control of ELEIN after post-emergence application (100=total damage to plant; 0=no damage to plant)
Description: as §1, §2

[3] = system: Euphorbia heterophylla (EPHHL); conditions: Application Rate 500 g/Ha, evaluated after 13 days; for pest or weed control at 500 g/ha: Euphorbia heterophylla, post-emergence, 312 h, read-out: Control of EPHHL after post-emergence application (100=total damage to plant; 0=no damage to plant)
Description: as §1, §2

Lolium perenne (LOLPE) = conditions: Application Rate 500 g/Ha, evaluated after 13 days; for pest or weed control at 500 g/ha: Lolium perenne, post-emergence, 312 h, read-out: Control of LOLPE after post-emergence application (100=total damage to plant; 0=no damage to plant)
Description: as §1, §2

[4] = system: Echinochloa crus-galli (ECHCG); conditions: Application Rate 500 g/Ha, evaluated after 13 days; for pest or weed control at 500 g/ha: Echinochloa crus-galli, post-emergence, 312 h, read-out: Control of ECHCG after post-emergence application (100=total damage to plant; 0=no damage to plant)
Description: as §1, §2

[5] = system: Chenopodium album (CHEAL); conditions: Application Rate 500 g/Ha, evaluated after 13 days; for pest or weed control at 500 g/ha: Chenopodium album, post-emergence, 312 h, read-out: Control of CHEAL after post-emergence application (100=total damage to plant; 0=no damage to plant)
Description: as §1, §2

[6] = system: Digitaria sanguinalis (DIGSA); conditions: Application Rate 500 g/Ha, evaluated after 13 days; for pest or weed control at 500 g/ha: Digitaria sanguinalis, post-emergence, 312 h, read-out: Control of DIGSA after post-emergence application (100=total damage to plant; 0=no damage to plant)
Description: as §1, §2

SMILES | Control of AMAPA after post-emergence application (100=total damage to plant; 0=no damage to plant) [1] | Control of IPOHE after post-emergence application (100=total damage to plant; 0=no damage to plant) [2] | Control of SETFA after post-emergence application (100=total damage to plant; 0=no damage to plant) (Setaria faberi (SETFA)) | pest or weed control at 500 g/ha (Eleusine indica (ELEIN)) | Control of EPHHL after post-emergence application (100=total damage to plant; 0=no damage to plant) [3] | pest or weed control at 500 g/ha (Lolium perenne (LOLPE)) | Control of ECHCG after post-emergence application (100=total damage to plant; 0=no damage to plant) [4] | Control of CHEAL after post-emergence application (100=total damage to plant; 0=no damage to plant) [5] | Control of DIGSA after post-emergence application (100=total damage to plant; 0=no damage to plant) [6] | pest or weed control at 500 g/ha [1] | pest or weed control at 500 g/ha [2] | Control of LOLPE after post-emergence application (100=total damage to plant; 0=no damage to plant) (Lolium perenne (LOLPE)) | pest or weed control at 500 g/ha [4] | pest or weed control at 500 g/ha [5] | pest or weed control at 500 g/ha [6] | pest or weed control at 500 g/ha (Setaria faberi (SETFA)) | pest or weed control at 500 g/ha [3] | Control of ELEIN after post-emergence application (100=total damage to plant; 0=no damage to plant) (Eleusine indica (ELEIN))
O=C(O)CC[n+]1ccc(-c2cccnn2)cn1.[Cl-] [Compound 1.027, 3-(4-pyridazin-3-ylpyridazin-1-ium-1-yl)propanoic acid chloride] | 100 | 30 | 100 | 80% | 100 | 100% | 100 | 100 | 100 | – | – | – | – | – | – | – | – | –
O=C(O)CC[n+]1ccc(-c2cnccn2)cn1.O=C([O-])C(F)(F)F [Compound 1.005, 3-(4-pyrazin-2-ylpyridazin-1-ium-1-yl)propanoic acid 2,2,2-trifluoroacetate] | – | – | 60 | 100% | 70 | – | – | – | – | 100% | 30% | 80 | 100% | 100% | 100% | – | – | –
O=C(O)CC[n+]1ccc(-c2ncccn2)cn1.[Cl-] [Compound 1.010, 3-(4-pyrimidin-2-ylpyridazin-1-ium-1-yl)propanoic acid chloride] | – | 40 | – | 100% | – | – | – | – | – | – | – | 90 | 100% | 100% | 100% | 100% | 100% | –
N[C@@H](CC[n+]1ccc(-c2ncccn2)cn1)C(=O)O [Compound 1.035, [(1S)-1-carboxy-3-(4-pyrimidin-2-ylpyridazin-1-ium-1-yl)propyl]-ammonium 2,2,2-trifluoroacetate] | – | – | – | 100% | – | 20% | – | – | – | 100% | 90% | – | 60% | 100% | 90% | 100% | 90% | –
O=C(O)CC[n+]1ccc(-c2ccncn2)cn1 [Compound 1.011] | – | – | – | 100% | – | 70% | – | – | – | 100% | 100% | – | 90% | 100% | 90% | 100% | 100% | –
Cl.O=C(O)CC[n+]1ccc(-c2cccnn2)cn1.[Cl-] [Compound 1.034, 3-(4-pyridazin-1-ium-3-ylpyridazin-1-ium-1-yl)propanoic acid dichloride] | – | 60 | – | – | – | – | – | – | – | 100% | – | 90 | 100% | 100% | 100% | 100% | 100% | 100
O=C(CC[n+]1ccc(-c2ncccn2)cn1)OCc1ccccc1 [Compound 1.018] | – | – | – | 100% | – | 40% | – | – | – | 90% | 30% | – | 80% | 90% | 100% | 100% | 100% | –
O=C(O)CC[n+]1ccc(-c2ncccn2)cn1.O=C([O-])C(F)(F)F [Compound 1.023, 3-(4-pyrimidin-2-ylpyridazin-1-ium-1-yl)propanoic acid 2,2,2-trifluoroacetate] | 100 | 30 | 100 | – | 100 | – | 100 | 80 | 100 | – | – | – | – | – | – | – | – | 100
Nc1ccnc(-c2cc[n+](CCS(=O)(=O)O)nc2)n1 [Compound 1.008] | – | – | – | 100% | – | 60% | – | – | – | – | 40% | – | 100% | 100% | 100% | 100% | 80% | –
Nc1ccnc(-c2cc[n+](CCC(=O)O)nc2)n1 [Compound 1.016] | – | – | – | 100% | – | 70% | – | – | – | – | 30% | – | 100% | 90% | 100% | 100% | 90% | –
Cc1cc(C)nc(-c2cc[n+](CCC(=O)[O-])nc2)n1 [Compound 1.017] | – | – | – | 100% | – | 60% | – | – | – | – | 50% | – | 70% | 100% | 100% | 100% | 80% | –
Cc1ccc(-c2cc[n+](CCS(=O)(=O)[O-])nc2)nn1 [Compound 1.014] | – | – | – | 90% | – | 90% | – | – | – | 100% | – | – | 80% | 100% | 100% | 100% | 100% | –
COc1cc(-c2cc[n+](CCCS(=O)(=O)[O-])nc2)ncn1 [Compound 1.019] | – | – | – | 90% | – | 30% | – | – | – | – | 60% | – | 70% | 100% | 100% | 100% | 100% | –
Cc1ccnc(-c2cc[n+](CCC(=O)[O-])nc2)n1 [Compound 1.015] | – | – | – | 100% | – | 80% | – | – | – | – | 30% | – | 100% | 100% | 100% | 100% | 80% | –
Cc1cnc(-c2cc[n+](CCS(=O)(=O)[O-])nc2)nc1 [Compound 1.009] | – | – | – | 100% | – | 80% | – | – | – | – | 30% | – | 100% | 100% | 100% | 100% | 70% | –
